Read-outs that look alike come from different tables or passages of the source.
Legend:
osteoarthritic rats = experiment: Osteoarthritic (OA) pain induced by sodium monoiodoacetate (MIA), hind limb grip force; type: in vivo, rat; details: rat, 20 days following MIA injection, hind limb grip force; for inhibition in vivo at 30 mg/kg / inhibition in vivo at 10 mg/kg: Rattus norvegicus, 480 h, read-out: OA MPE
Protocol: Osteoarthritic (OA) Pain Induced by Sodium Monoiodoacetate (MIA)
Pain behavior was assessed by measurement of hind limb grip force (GF) in adult osteoarthritic rats. Male Sprague Dawley rats, obtained from Charles River Laboratories, (Wilmington, Mass.), weighing 150-175 g, were injected in the unilateral knee join with a single intra-articular injection of sodium monoiodoacetate (MIA, 3 mg/rat). All rats were tested at 20 days following MIA injection. A behavioral measure of activity-induced pain was carried out. Measurements of the peak hind limb grip force were conducted by recording the maximum compressive force (CFmax), in grams of force, exerted on a hind limb strain gauge setup, in a commercially available grip force measurement system (Columbus Instruments, Columbus, Ohio).
During testing, each rat was gently restrained by grasping it around its rib cage and then allowed to grasp the wire mesh frame attached to the strain gauge. The experimenter then moved the animal in a rostral-to-caudal direction until the grip was broken. Each rat was sequentially tested twice at an approximately 2-3 minute interval to obtain a raw mean grip force (CFmax). This raw mean grip force data was in turn converted to a maximum hindlimb cumulative compressive force (CFmax), as the grams of force/kg of body weight, for each animal.
For evaluating the compound effects, the hind limb grip force was conducted 20 days following the intra-articular injection of MIA. A group of age-matched naïve (not injected with MIA) animals was added as a comparator to the drug-dosed groups. The vehicle control response for each group of MIA-treated animals was defined as the 0% response (0% effect), whereas the naïve control group was defined as the normal response and as 100% effect. The % effect for each dose group was expressed as % return of response to normalcy, compared to the naïve group. A percent maximal possible effect (% MPE) of testing compound was calculated according to the formula: (Treatment CFmax−Vehicle CFmax)/Vehicle CFmax]×100). Higher % effect numbers indicate increased relief from the pain in the model, with 100% indicating a return to the level of response seen in normal (non-osteoarthritic) animals. All experiments evaluating drug effects in this model were conducted in a randomized blinded fashion.
The animals were housed in Association for Assessment and Accreditation of Laboratory Animal Care (AAALAC) approved facilities at AbbVie Inc. in a temperature-regulated environment under a controlled 12-hour light-dark cycle, with lights on at 6:00 a.m. Food and water were available ad libitum at all times except during testing. All testing was done following procedures outlined in protocols approved by AbbVie Inc.'s Institutional Animal Care and Use Committee.

recombinant human Nav1.8 = recombinant human Nav1.8 (Homo sapiens (Human), UniProt Q9Y5Y9); experiment: FRET-based membrane potential assay, recombinant human sodium channel Nav1.8; type: cell-based
Chain of recombinant human Nav1.8 (Q9Y5Y9 whole entry): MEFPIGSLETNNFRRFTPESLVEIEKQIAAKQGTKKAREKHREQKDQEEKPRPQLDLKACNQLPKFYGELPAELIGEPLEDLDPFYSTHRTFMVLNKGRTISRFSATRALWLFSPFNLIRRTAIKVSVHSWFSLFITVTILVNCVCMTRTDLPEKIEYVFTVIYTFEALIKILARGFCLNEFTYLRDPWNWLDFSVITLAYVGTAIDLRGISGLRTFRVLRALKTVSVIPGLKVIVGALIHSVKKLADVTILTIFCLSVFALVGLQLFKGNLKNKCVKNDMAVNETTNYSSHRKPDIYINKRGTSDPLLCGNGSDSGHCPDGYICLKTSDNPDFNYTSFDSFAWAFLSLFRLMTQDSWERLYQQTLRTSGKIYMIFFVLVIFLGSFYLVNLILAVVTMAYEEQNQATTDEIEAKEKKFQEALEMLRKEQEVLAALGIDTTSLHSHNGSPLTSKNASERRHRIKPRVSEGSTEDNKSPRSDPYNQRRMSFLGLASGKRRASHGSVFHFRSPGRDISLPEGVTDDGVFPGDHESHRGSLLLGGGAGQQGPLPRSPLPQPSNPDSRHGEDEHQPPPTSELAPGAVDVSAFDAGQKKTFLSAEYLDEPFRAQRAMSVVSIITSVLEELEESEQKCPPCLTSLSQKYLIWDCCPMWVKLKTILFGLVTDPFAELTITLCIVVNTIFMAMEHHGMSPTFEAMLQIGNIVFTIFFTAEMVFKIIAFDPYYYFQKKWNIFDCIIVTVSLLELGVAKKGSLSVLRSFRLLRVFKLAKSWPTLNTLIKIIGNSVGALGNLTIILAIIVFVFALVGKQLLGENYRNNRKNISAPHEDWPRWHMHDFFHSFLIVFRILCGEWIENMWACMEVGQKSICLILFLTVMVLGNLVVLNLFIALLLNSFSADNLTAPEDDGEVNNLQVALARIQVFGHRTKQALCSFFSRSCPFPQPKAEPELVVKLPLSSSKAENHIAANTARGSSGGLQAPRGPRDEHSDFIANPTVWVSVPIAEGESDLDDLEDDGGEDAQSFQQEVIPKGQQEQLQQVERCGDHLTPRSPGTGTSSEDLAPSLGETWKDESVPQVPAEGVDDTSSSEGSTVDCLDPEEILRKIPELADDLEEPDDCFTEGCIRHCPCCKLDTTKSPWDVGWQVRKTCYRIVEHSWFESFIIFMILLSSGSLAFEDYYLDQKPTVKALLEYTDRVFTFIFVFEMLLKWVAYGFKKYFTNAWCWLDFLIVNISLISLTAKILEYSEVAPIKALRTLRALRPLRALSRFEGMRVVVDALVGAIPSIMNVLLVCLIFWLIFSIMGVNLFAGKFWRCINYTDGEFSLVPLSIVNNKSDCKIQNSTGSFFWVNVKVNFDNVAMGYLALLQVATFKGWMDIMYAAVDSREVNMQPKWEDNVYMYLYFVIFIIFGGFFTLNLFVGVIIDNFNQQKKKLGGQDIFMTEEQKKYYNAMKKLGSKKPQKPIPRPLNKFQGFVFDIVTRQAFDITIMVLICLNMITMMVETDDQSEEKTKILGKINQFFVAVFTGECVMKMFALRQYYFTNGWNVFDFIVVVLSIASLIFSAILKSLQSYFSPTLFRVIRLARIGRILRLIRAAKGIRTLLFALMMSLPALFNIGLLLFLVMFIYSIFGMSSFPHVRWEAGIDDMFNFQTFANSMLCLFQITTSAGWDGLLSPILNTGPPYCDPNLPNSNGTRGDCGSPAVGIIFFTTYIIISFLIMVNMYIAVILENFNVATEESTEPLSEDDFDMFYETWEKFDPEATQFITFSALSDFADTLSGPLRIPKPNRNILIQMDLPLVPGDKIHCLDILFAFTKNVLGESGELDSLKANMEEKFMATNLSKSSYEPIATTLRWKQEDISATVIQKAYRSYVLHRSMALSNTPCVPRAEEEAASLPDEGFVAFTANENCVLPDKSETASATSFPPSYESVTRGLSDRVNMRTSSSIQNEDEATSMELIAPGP

recombinant human Nav1.7 = recombinant human Nav1.7 (Homo sapiens (Human), UniProt Q15858); experiment: FRET-based membrane potential assay, recombinant human sodium channel Nav1.7; type: cell-based
Chain of recombinant human Nav1.7 (Q15858 whole entry): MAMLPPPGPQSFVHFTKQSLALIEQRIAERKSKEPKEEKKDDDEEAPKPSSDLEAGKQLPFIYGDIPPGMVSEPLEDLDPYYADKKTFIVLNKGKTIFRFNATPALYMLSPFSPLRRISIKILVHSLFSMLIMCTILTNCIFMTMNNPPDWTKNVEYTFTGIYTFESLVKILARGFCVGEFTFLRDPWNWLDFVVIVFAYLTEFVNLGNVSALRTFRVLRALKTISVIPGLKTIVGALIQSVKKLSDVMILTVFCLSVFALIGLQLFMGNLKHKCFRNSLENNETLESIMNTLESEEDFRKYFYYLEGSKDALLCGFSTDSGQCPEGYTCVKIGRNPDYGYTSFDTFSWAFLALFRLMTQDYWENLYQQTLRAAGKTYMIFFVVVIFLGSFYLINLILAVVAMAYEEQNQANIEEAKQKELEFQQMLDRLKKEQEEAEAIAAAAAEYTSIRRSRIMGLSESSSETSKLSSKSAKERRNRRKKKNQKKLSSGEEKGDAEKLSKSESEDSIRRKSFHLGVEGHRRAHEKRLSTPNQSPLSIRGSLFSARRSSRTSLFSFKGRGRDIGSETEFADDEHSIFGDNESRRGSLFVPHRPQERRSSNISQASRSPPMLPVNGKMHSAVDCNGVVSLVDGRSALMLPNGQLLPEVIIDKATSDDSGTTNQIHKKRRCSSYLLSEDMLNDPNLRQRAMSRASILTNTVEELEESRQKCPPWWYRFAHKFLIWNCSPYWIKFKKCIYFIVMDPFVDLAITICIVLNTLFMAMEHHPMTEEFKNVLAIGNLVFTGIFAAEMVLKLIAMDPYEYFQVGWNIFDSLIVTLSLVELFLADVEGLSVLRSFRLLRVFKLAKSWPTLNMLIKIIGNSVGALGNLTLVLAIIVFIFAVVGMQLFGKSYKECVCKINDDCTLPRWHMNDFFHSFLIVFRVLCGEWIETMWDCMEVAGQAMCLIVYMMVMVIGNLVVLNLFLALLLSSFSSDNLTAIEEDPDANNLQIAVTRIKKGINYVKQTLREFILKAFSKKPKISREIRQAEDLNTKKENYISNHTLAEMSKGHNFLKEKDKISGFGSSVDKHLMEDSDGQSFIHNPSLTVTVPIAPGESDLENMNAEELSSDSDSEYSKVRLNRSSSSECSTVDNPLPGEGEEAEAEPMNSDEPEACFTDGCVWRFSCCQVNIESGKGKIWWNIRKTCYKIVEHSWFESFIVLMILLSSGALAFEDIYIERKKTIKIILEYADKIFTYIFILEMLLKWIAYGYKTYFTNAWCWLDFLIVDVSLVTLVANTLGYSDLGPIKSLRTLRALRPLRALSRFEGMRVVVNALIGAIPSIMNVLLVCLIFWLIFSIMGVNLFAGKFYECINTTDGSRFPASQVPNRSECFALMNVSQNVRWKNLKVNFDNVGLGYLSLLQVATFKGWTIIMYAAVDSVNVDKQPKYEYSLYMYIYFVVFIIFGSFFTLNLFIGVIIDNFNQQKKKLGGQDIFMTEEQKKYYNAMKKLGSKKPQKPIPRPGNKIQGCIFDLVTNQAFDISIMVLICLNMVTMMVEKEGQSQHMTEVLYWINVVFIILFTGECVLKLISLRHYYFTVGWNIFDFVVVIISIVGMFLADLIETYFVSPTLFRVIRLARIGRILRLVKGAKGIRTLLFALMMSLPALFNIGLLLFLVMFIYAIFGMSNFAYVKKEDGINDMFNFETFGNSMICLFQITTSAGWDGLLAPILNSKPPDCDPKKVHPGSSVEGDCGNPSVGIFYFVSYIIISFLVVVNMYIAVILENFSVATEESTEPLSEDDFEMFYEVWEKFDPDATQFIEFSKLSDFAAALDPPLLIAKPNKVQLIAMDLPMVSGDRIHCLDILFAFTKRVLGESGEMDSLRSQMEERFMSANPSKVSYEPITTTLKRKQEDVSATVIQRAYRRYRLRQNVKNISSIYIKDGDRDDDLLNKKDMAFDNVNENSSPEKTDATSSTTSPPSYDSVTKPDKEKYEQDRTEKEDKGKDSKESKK
Outline: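 Channel activation used veratridine at its EC80, set by a dilution curve each experiment, together with Leiurus scorpion venom, added 3 min after compound. Membrane-potential ratio signals from FLIPR Tetra in HEPES-buffered HBSS were fitted to a four-parameter Hill equation for percent inhibition and IC50.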

[1] = HEK293 cells stably expressing recombinant human Nav1.8, veratridine + scorpion venom depolarization
[2] = HEK293 cells stably expressing recombinant human Nav1.7, veratridine + scorpion venom depolarization, read-out: FRET-Membrane Potential Nav1.7 IC50
[3] = read-out: FRET-Membrane Potential Nav1.7 IC50

Row | Compound | inhibition in vivo at 30 mg/kg (osteoarthritic rats; OA dose 30 mg/kg) | IC50 (recombinant human Nav1.8; [1]) | IC50 (recombinant human Nav1.7; [2]) | IC50 (recombinant human Nav1.7; [3]) | other results
1 | O=C(c1ccc2cc(Oc3ccc(C(F)(F)F)cn3)ccc2n1)N1CCNCC1C(F)F (single isomer, unassigned) [Example 72, [(2S*)-2-(difluoromethyl)piperazin-1-yl](6-{[5-(trifluoromethyl)pyridin-2-yl]oxy}quinolin-2-yl)methanone] | 11% | 3840 nM |  |  | IC50 (recombinant human Nav1.7; FRET-Membrane Potential Nav1.7 IC50): 2730 nM
2 | CN1CC(NC(=O)c2ccc3cc(Oc4ccc(C(F)(F)F)cn4)ccc3n2)CC1=O (single isomer, unassigned) [Example 73, N-[(3R*)-1-methyl-5-oxopyrrolidin-3-yl]-6-{[5-(trifluoromethyl)pyridin-2-yl]oxy}quinoline-2-carboxamide] | 66% | 1700 nM | 1440 nM |  | 
3 | CN1CC(NC(=O)c2ccc3cc(Oc4ccc(C(F)(F)F)cn4)ccc3n2)CC1=O (single isomer, unassigned) [Example 74, N-[(3S*)-1-methyl-5-oxopyrrolidin-3-yl]-6-{[5-(trifluoromethyl)pyridin-2-yl]oxy}quinoline-2-carboxamide] |  | 1880 nM | 863 nM |  | OA MPE (osteoarthritic rats; OA dose 30 mg/kg): 69%
4 | O=C(c1ccc2cc(Oc3ccc(C(F)(F)F)cn3)ccc2n1)N1CC(O)C1 [Example 18, (3-hydroxyazetidin-1-yl)(6-{[5-(trifluoromethyl)pyridin-2-yl]oxy}quinolin-2-yl)methanone] |  |  | 2200 nM |  | inhibition in vivo at 10 mg/kg (osteoarthritic rats; OA dose 10 mg/kg): 23%; IC50 (recombinant human Nav1.8): 5340 nM
5 | O=C(c1ccc2cc(Oc3ccc(C(F)(F)F)nc3)ccc2n1)N1CCNCC1 [Example 19, piperazin-1-yl(6-{[6-(trifluoromethyl)pyridin-3-yl]oxy}quinolin-2-yl)methanone] | 64% | 3960 nM | 1260 nM |  | 
6 | O=C(c1ccc2cc(Oc3ccc(C(F)(F)F)cn3)ccc2n1)N1CCNC(C(F)(F)F)C1 (stereo not shown) [Example 20, [3-(trifluoromethyl)piperazin-1-yl](6-{[5-(trifluoromethyl)pyridin-2-yl]oxy}quinolin-2-yl)methanone] |  | 3230 nM | 10500 nM |  | inhibition in vivo at 10 mg/kg (osteoarthritic rats; OA dose 10 mg/kg): 24%
7 | O=C(NC1CCC(F)(F)CC1)c1ccc2cc(Oc3ccc(C(F)(F)F)cn3)ccc2n1 [Example 23, N-(4,4-difluorocyclohexyl)-6-{[5-(trifluoromethyl)pyridin-2-yl]oxy}quinoline-2-carboxamide] | 83% | > 20000 nM | 1450 nM |  | 
8 | O=C(c1ccc2cc(Oc3ccc(C(F)(F)F)cn3)ccc2n1)N1CCNCC1C(F)F (stereo not shown) [Example 25, [2-(difluoromethyl)piperazin-1-yl](6-{[5-(trifluoromethyl)pyridin-2-yl]oxy}quinolin-2-yl)methanone] | 102% | 3830 nM |  | 1750 nM | 
9 | O=C(c1ccc2cc(Oc3ccc(C(F)(F)F)cn3)ccc2n1)N1CCN(CCO)CC1 [Example 28, [4-(2-hydroxyethyl)piperazin-1-yl](6-{[5-(trifluoromethyl)pyridin-2-yl]oxy}quinolin-2-yl)methanone] |  | 4220 nM | 3060 nM |  | inhibition in vivo at 10 mg/kg (osteoarthritic rats; OA dose 10 mg/kg): 16%
10 | N[C@@H]1[C@H]2CN(C(=O)c3ccc4cc(Oc5ccc(C(F)(F)F)cn5)ccc4n3)C[C@@H]12 [Example 36, meso-[(1R,5S,6s)-6-amino-3-azabicyclo[3.1.0]hex-3-yl](6-{[5-(trifluoromethyl)pyridin-2-yl]oxy}quinolin-2-yl)methanone] |  | 1420 nM | 727 nM |  | OA MPE (osteoarthritic rats; OA dose 10 mg/kg): 55%
11 | O=C(NCC(=O)N1CCCC1)c1ccc2cc(Oc3ccc(C(F)(F)F)cn3)ccc2n1 [Example 44, N-[2-oxo-2-(pyrrolidin-1-yl)ethyl]-6-{[5-(trifluoromethyl)pyridin-2-yl]oxy}quinoline-2-carboxamide] |  |  |  |  | inhibition in vivo at 10 mg/kg (osteoarthritic rats; OA dose 10 mg/kg): 42%; IC50 (recombinant human Nav1.8): 937 nM
12 | CCN1CC(NC(=O)c2ccc3cc(Oc4ccc(C(F)(F)F)cn4)ccc3n2)CC1=O (stereo not shown) [Example 45, N-(1-ethyl-5-oxopyrrolidin-3-yl)-6-{[5-(trifluoromethyl)pyridin-2-yl]oxy}quinoline-2-carboxamide] | 17% | 468 nM | 325 nM |  | 
13 | CCN1CC(NC(=O)c2ccc3cc(Oc4ccc(C(F)F)cn4)ccc3n2)CC1=O (stereo not shown) [Example 46, 6-{[5-(difluoromethyl)pyridin-2-yl]oxy}-N-(1-ethyl-5-oxopyrrolidin-3-yl)quinoline-2-carboxamide] | 98% | 501 nM | 344 nM |  | 
14 | O=C(c1ccc2cc(Oc3ccc(C(F)(F)F)cn3)ccc2n1)N1CCN(C2CCC2)CC1 [Example 47, (4-cyclobutylpiperazin-1-yl)(6-{[5-(trifluoromethyl)pyridin-2-yl]oxy}quinolin-2-yl)methanone] |  | 334 nM |  | 1420 nM | inhibition in vivo at 10 mg/kg (osteoarthritic rats; OA dose 10 mg/kg): 30%
15 | O=C(c1ccc2cc(Oc3ccc(C(F)(F)F)cn3)ccc2n1)N1CCNCC(F)(F)C1 [Example 417, (6,6-difluoro-1,4-diazepan-1-yl)(6-{[5-(trifluoromethyl)pyridin-2-yl]oxy}quinolin-2-yl)methanone] |  | 2750 nM |  | 11500 nM | 
16 | O=C1C[C@@H](NC(=O)c2ccc3cc(Oc4ccc(C(F)(F)F)cn4)ccc3n2)CCN1 [Example 512, N-[(4S)-2-oxopiperidin-4-yl]-6-{[5-(trifluoromethyl)pyridin-2-yl]oxy}quinoline-2-carboxamide] |  | 213 nM |  | 983 nM | 
17 | O=C1C[C@H](NC(=O)c2ccc3cc(Oc4ccc(C(F)(F)F)cn4)ccc3n2)CCN1 [Example 521, N-[(4R)-2-oxopiperidin-4-yl]-6-{[5-(trifluoromethyl)pyridin-2-yl]oxy}quinoline-2-carboxamide] |  | 1100 nM |  | 2630 nM | 
18 | CN1CCC(N(C)C(=O)c2ccc3cc(Oc4ccc(C(F)(F)F)cn4)ccc3n2)CC1=O (stereo not shown) [Example 529, N-methyl-N-(1-methyl-2-oxopiperidin-4-yl)-6-{[5-(trifluoromethyl)pyridin-2-yl]oxy}quinoline-2-carboxamide] |  | > 20000 nM |  | 10300 nM | 
19 | O=C(NC1CC(F)(F)C1)c1ccc2cc(Oc3ccc(C(F)F)cn3)ccc2n1 [Example 580, N-(3,3-difluorocyclobutyl)-6-{[5-(difluoromethyl)pyridin-2-yl]oxy}quinoline-2-carboxamide] |  | 1140 nM |  | 1560 nM | 
20 | O=C(c1ccc2cc(Oc3ccc(C(F)(F)F)cn3)ccc2n1)N1CCNC[C@@H]1C(F)F [Example 603, [(2R)-2-(difluoromethyl)piperazin-1-yl](6-{[5-(trifluoromethyl)pyridin-2-yl]oxy}quinolin-2-yl)methanone] |  | 3670 nM |  | 1950 nM | 
21 | CN(CC(F)(F)F)C(=O)c1ccc2cc(Oc3ccc(C(F)(F)F)cn3)ccc2n1 [Example 616, N-methyl-N-(2,2,2-trifluoroethyl)-6-{[5-(trifluoromethyl)pyridin-2-yl]oxy}quinoline-2-carboxamide] | 28% |  | 2630 nM |  | 
22 | O=C(c1ccc2cc(Oc3ccc(C(F)(F)F)cn3)ccc2n1)N1CC(NCC(F)(F)F)C1 [Example 621, {3-[(2,2,2-trifluoroethyl)amino]azetidin-1-yl}(6-{[5-(trifluoromethyl)pyridin-2-yl]oxy}quinolin-2-yl)methanone] |  | 1650 nM | 2690 nM |  | 
23 | CN(CC(F)F)C(=O)c1ccc2cc(Oc3ccc(C(F)(F)F)cn3)ccc2n1 [Example 622, N-(2,2-difluoroethyl)-N-methyl-6-{[5-(trifluoromethyl)pyridin-2-yl]oxy}quinoline-2-carboxamide] |  | 2280 nM |  | 5400 nM | 
24 | O=C(c1ccc2cc(Oc3ccc(C(F)(F)F)cn3)ccc2n1)N1CC2(CCOCC2)C1 [Example 623, 7-oxa-2-azaspiro[3.5]non-2-yl(6-{[5-(trifluoromethyl)pyridin-2-yl]oxy}quinolin-2-yl)methanone] |  | 3700 nM | 4910 nM |  | 

Reference: patent US9452986B2, “6-heteroaryloxy- or 6-aryloxy-quinoline-2-carboxamides and method of use” (AbbVie Inc., priority 2014, dated 2016)
